Data reported in patent US10457707B2, “Substituted urea depsipeptide analogs as activators of the CLPP endopeptidase” (priority 2015, dated 2019).
*1 amine or outer side, *2 acyl side, *3 side chain or, on linkers, in order; H or OH if unused. Where a SMILES comes first, the peptide text is derived from it. Bridges are numbered along the chain shown (N, C = ends). [ ]: non-standard residue; d: D form. The star is where a group is joined. ξ: configuration not given here. Phe(3,5-F2) = N[C@@H](Cc1cc(F)cc(F)c1)C(=O)O; NH(1-Me-indolin-5-yl) = CN1CCc2cc(N*)ccc21; NH(4-OCF3-phenyl) = FC(F)(F)Oc1ccc(N*)cc1; Morpholine(3S-CO) = O=C(O)[C@@H]1COCCN1; Pro(4S-Me) = C[C@@H]1CN[C@H](C(=O)O)C1; NH(4-Cl-2-F-phenyl) = Fc1cc(Cl)ccc1N*; Pro(4R-Me) = C[C@H]1CN[C@H](C(=O)O)C1; NH(3,4-Me2-phenyl) = Cc1ccc(N*)cc1C; NMeaThr = CN[C@H](C(=O)O)[C@H](C)O; Hyp = O=C(O)[C@@H]1C[C@@H](O)CN1; NH(4-Et-phenyl) = CCc1ccc(N*)cc1; NMeT = CN[C@H](C(=O)O)[C@@H](C)O; NH(4-Me-phenyl) = Cc1ccc(N*)cc1; ξNMeThr = CNC(C(=O)O)[C@@H](C)O; aThr = C[C@H](O)[C@H](N)C(=O)O; Pip = O=C(O)[C@@H]1CCCCN1; CO = O=C([*:1])[*:2]

These molecules were tested against T1, Sa-ClpP (Staphylococcus aureus, UniProt Q2G036) (assay: Casein-BODIPY assay, second described ClpP activation method (EnzCheck Protease Assay, 384 well)). Details: values marked †: second described ClpP activation assay.
T1 construct: made in house; host or cells: E. coli BL21(DE3)
T1 sequence (Q2G036 1-195): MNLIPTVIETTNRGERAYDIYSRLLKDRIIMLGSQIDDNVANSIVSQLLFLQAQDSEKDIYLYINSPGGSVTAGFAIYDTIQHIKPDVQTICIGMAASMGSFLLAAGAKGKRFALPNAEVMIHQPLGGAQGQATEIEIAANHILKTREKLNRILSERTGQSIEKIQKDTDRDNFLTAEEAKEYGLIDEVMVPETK
Assay type: biochemical, S. aureus
Experimental: Alternatively, the assay was carried out using EnzCheck Protease Assay (Molecular Probes, Catalog # E6638). The assay was performed in black 384 well, flat bottom, low volume plates (Greiner Bio-One, Monroe, N.C., catalog #784076). 10 μL of Tris*HCl buffer, pH 8.0 with 0.01% Triton X-100 was pipetted into each well using a Well-Mate (Thermo Scientific, Waltham, Mass.). 0.4 μL test compounds or controls (2% DMSO v/v) were added to each well using a Biomek FX liquid handling robot (Beckman Coulter, Indianapolis Ind.). After addition of test compounds and controls, 10 μL of master mix containing 2 μM Sa-ClpP and 2 μM substrate (Bodipy-FL labeled casein) in Tris*HCl buffer, pH 8.0 with 0.01% (v/v) Triton X-100, was pipetted into each well. All assays were performed in triplicate, under linear velocity conditions. Increase in fluorescent signal following activation of Sa-ClpP by test compounds and controls was measured over time period of 30 mins using filters with excitation at 485±15 nm and emission at 520±25 nm on a PHERAstar FS Multilabel reader (BMG, Cary, N.C.). […] Data analysis was done by measuring rate of casein degradation over time (slopes). Computed degradation rates (slopes) were normalized to positive (ADEP4) or negative (DMSO) controls. Using nonlinear regression curve fitting EC50 values and % activation were determined using the equation “log [agonist] vs. Response-variable slope (four parameters)-symmetrical” in the program Prism 6 (GraphPad Software, La Jolla, Calif. USA, www.graphpad.com).

Row | Compound | EC50
1 | CCc1ccc(NC(=O)N[C@@H](Cc2cc(F)cc(F)c2)C(=O)N[C@@H]2C(=O)N3CCC[C@H]3C(=O)N(C)[C@@H]([C@@H](C)O)C(=O)N[C@@H](C)C(=O)N3C[C@@H](C)C[C@H]3C(=O)O[C@H]2C)cc1 [Compound 37, (S)-3-(3,5-difluorophenyl)-2-(3-(4-ethylphenyl)ureido)-N-((2S,6S,9S,11aS,17S,18S,20aS)-9-((R)-1-hydroxyethyl)-2,6,10,18-tetramethyl-5,8,11,16,20-pentaoxohexadecahydro-1H,5H,16H-dipyrrolo[2,1-c:2′,1′-l][1]oxa[4,7,10,13]tetraazacyclohexadecin-17-yl)propanamide] ({NH(4-Et-phenyl)-CO}-[Phe(3,5-F2)][aThr]P[NMeT]A[Pro(4S-Me)]; ester 2-C) | 350 ± 10 nM

Each molecule was assayed against T1, Sa-ClpP (assay: Sa-ClpP casein-BODIPY ClpP activation assay, method variant not marked in Table 5). Details: not given.
Assay type: biochemical, S. aureus
Outline: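 EC50 for activation derived by dose-response fitting of casein digestion rates, run in triplicate. Conditions: 37° C, pH 8 buffer with 200 mM KCl and 1 mM TCEP, 10 μM Sa-ClpP, 25 μg/ml BODIPY FL casein, compound at 0-1000 μM; signal at 485/528 nm followed 45 min.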

Row | Compound | EC50
2 | C[C@@H]1C[C@H]2C(=O)O[C@@H](C)[C@H](NC(=O)[C@H](Cc3cc(F)cc(F)c3)NC(=O)Nc3ccc(Cl)cc3F)C(=O)N3CCC[C@H]3C(=O)N(C)C([C@@H](C)O)C(=O)N[C@@H](C)C(=O)N2C1 (stereo partly drawn) [Compound 313, (S)-2-(3-(4-chloro-2-fluorophenyl)ureido)-3-(3,5-difluorophenyl)-N-((2R,6S,9R,11aS,17S,18S,20aS)-9-((R)-1-hydroxyethyl)-2,6,10,18-tetramethyl-5,8,11,16,20-pentaoxohexadecahydro-1H,5H,16H-dipyrrolo[2,1-c:2′,1′-l][1]oxa[4,7,10,13]tetraazacyclohexadecin-17-yl)propanamide] ({NH(4-Cl-2-F-phenyl)-CO}-[Phe(3,5-F2)][aThr]P[ξNMeThr]A[Pro(4R-Me)]; ester 2-C) | 340 ± 10 nM
3 | C[C@@H]1C[C@H]2C(=O)O[C@@H](C)[C@H](NC(=O)[C@H](Cc3cc(F)cc(F)c3)NC(=O)Nc3ccc(Cl)cc3F)C(=O)N3C[C@H](O)C[C@H]3C(=O)N3CCCC[C@H]3C(=O)N[C@@H](C)C(=O)N2C1 [Compound 329, (S)-2-(3-(4-chloro-2-fluorophenyl)ureido)-3-(3,5-difluorophenyl)-N-((2R,6S,8aS,14aS,16R,20S,21S,23aS)-16-hydroxy-2,6,21-trimethyl-5,8,14,19,23-pentaoxooctadecahydro-1H,5H,14H,19H-pyrido[2,1-i]dipyrrolo[2,1-c:2′,1′-l][1]oxa[4,7,10,13]tetraazacyclo-hexadecin-20-yl)propanamide] ({NH(4-Cl-2-F-phenyl)-CO}-[Phe(3,5-F2)][aThr][Hyp][Pip]A[Pro(4R-Me)]; ester 2-C) | 400 ± 20 nM

Same assay, conditions: values without ** or † mark; assay variant not stated; read-out: ClpP Activation EC50

Row | Compound | EC50
4 | C[C@@H]1C[C@H]2C(=O)O[C@@H](C)[C@H](NC(=O)[C@H](Cc3cc(F)cc(F)c3)NC(=O)Nc3ccc4c(c3)CCN4C)C(=O)N3CCC[C@H]3C(=O)N3CCCC[C@H]3C(=O)N[C@@H](C)C(=O)N2C1 [Compound 310, (S)-3-(3,5-difluorophenyl)-2-(3-(1-methylindolin-5-yl)ureido)-N-((2R,6S,8aS,14aS,20S,21S,23aS)-2,6,21-trimethyl-5,8,14,19,23-pentaoxooctadecahydro-1H,5H,14H,19H-pyrido[2,1-i]dipyrrolo[2,1-c:2′,1′-l][1]oxa[4,7,10,13]tetraazacyclo-hexadecin-20-yl)propanamide] ({NH(1-Me-indolin-5-yl)-CO}-[Phe(3,5-F2)][aThr]P[Pip]A[Pro(4R-Me)]; ester 2-C) | 440 ± 30 nM
5 | Cc1ccc(NC(=O)N[C@@H](Cc2cc(F)cc(F)c2)C(=O)N[C@H]2COC(=O)[C@@H]3C[C@@H](C)CN3C(=O)[C@H](C)NC(=O)[C@@H]3CCCCN3C(=O)[C@@H]3CCCN3C2=O)cc1C [Compound 207, (S)-3-(3,5-difluorophenyl)-N-((2R,6S,8aS,14aS,20S,23aS)-2,6-dimethyl-5,8,14,19,23-pentaoxooctadecahydro-1H,5H,14H,19H-pyrido[2,1-i]dipyrrolo[2,1-c:2′,1′-l][1]oxa[4,7,10,13]tetraazacyclohexadecin-20-yl)-2-(3-(3,4-dimethylphenyl)ureido)propanamide] | 8300 ± 1900 nM
6 | Cc1ccc(NC(=O)N[C@@H](Cc2cc(F)cc(F)c2)C(=O)N[C@@H]2C(=O)N3CCC[C@H]3C(=O)N3CCOC[C@H]3C(=O)N[C@@H](C)C(=O)N3C[C@H](C)C[C@H]3C(=O)O[C@H]2C)cc1 [Compound 210, (S)-3-(3,5-difluorophenyl)-2-(3-(p-tolyl)ureido)-N-((6aS,12S,13S,15aS,17R,21S,23aS)-13,17,21-trimethyl-6,11,15,20,23-pentaoxooctadecahydro-6H,11H,15H-[1,4]oxazino[3,4-i]dipyrrolo[2,1-c:2′,1′-l][1]oxa[4,7,10,13]tetraazacyclohexadecin-12-yl)propanamide] ({NH(4-Me-phenyl)-CO}-[Phe(3,5-F2)][aThr]P[Morpholine(3S-CO)]A[Pro(4R-Me)]; ester 2-C) | 400 ± 10 nM
7 | C[C@@H]1C[C@H]2C(=O)OC[C@H](NC(=O)[C@H](Cc3ccccc3)NC(=O)Nc3ccc4c(c3)OCO4)C(=O)N3CCC[C@H]3C(=O)N3CCCC[C@H]3C(=O)N[C@@H](C)C(=O)N2C1 [Compound 194, (S)-2-(3-(benzo[d][1,3]dioxol-5-yl)ureido)-N-((2R,6S,8aS,14aS,20S,23aS)-2,6-dimethyl-5,8,14,19,23-pentaoxooctadecahydro-1H,5H,14H,19H-pyrido[2,1-i]dipyrrolo[2,1-c:2′,1′-l][1]oxa[4,7,10,13]tetraazacyclohexadecin-20-yl)-3-phenylpropanamide] | 1200 ± 600 nM
8 | Cc1ccc(NC(=O)N[C@@H](Cc2cc(F)cc(F)c2)C(=O)N[C@@H]2C(=O)N3CCC[C@H]3C(=O)N(C)[C@@H]([C@H](C)O)C(=O)N[C@@H](C)C(=O)N3C[C@@H](C)C[C@H]3C(=O)O[C@H]2C)cc1 [Compound 202, (S)-3-(3,5-difluorophenyl)-N-((2S,6S,9S,11aS,17S,18S,20aS)-9-((S)-1-hydroxyethyl)-2,6,10,18-tetramethyl-5,8,11,16,20-pentaoxohexadecahydro-1H,5H,16H-dipyrrolo[2,1-c:2′,1′-L][1]oxa[4,7,10,13]tetraazacyclohexadecin-17-yl)-2-(3-(p-tolyl)ureido)propanamide] ({NH(4-Me-phenyl)-CO}-[Phe(3,5-F2)][aThr]P[NMeaThr]A[Pro(4S-Me)]; ester 2-C) | 480 ± 30 nM
9 | Cc1ccc(NC(=O)N[C@@H](Cc2cc(F)cc(F)c2)C(=O)N[C@@H]2C(=O)N3C[C@H](O)C[C@H]3C(=O)N3CCOC[C@H]3C(=O)N[C@@H](C)C(=O)N3C[C@H](C)C[C@H]3C(=O)O[C@H]2C)cc1C [Compound 215, (S)-3-(3,5-difluorophenyl)-2-(3-(3,4-dimethylphenyl)ureido)-N-((6aS,8R,12S,13S,15aS,17R,21S,23aS)-8-hydroxy-13,17,21-trimethyl-6,11,15,20,23-pentaoxooctadecahydro-6H,11H,15H-[1,4]oxazino[3,4-i]dipyrrolo[2,1-c:2′,1′-l][1]oxa[4,7,10,13]tetraazacyclohexadecin-12-yl)propanamide] ({NH(3,4-Me2-phenyl)-CO}-[Phe(3,5-F2)][aThr][Hyp][Morpholine(3S-CO)]A[Pro(4R-Me)]; ester 2-C) | 500 ± 10 nM
10 | Cc1ccc(NC(=O)N[C@@H](Cc2cc(F)cc(F)c2)C(=O)N[C@@H]2C(=O)N3CCC[C@H]3C(=O)N(C)[C@@H]([C@H](C)O)C(=O)N[C@@H](C)C(=O)N3C[C@H](C)C[C@H]3C(=O)O[C@H]2C)cc1 [Compound 208, (S)-3-(3,5-difluorophenyl)-N-((2R,6S,9S,11aS,17S,18S,20aS)-9-((S)-1-hydroxyethyl)-2,6,10,18-tetramethyl-5,8,11,16,20-pentaoxohexadecahydro-1H,5H,16H-dipyrrolo[2,1-c:2′,1′-l][1]oxa[4,7,10,13]tetraazacyclohexadecin-17-yl)-2-(3-(p-tolyl)ureido)propanamide] ({NH(4-Me-phenyl)-CO}-[Phe(3,5-F2)][aThr]P[NMeaThr]A[Pro(4R-Me)]; ester 2-C) | 480 ± 30 nM
11 | C[C@H]1C[C@H]2C(=O)O[C@@H](C)[C@H](NC(=O)[C@H](Cc3cc(F)cc(F)c3)NC(=O)Nc3ccc(OC(F)(F)F)cc3)C(=O)N3CCC[C@H]3C(=O)N(C)[C@@H]([C@H](C)O)C(=O)N[C@@H](C)C(=O)N2C1 [Compound 203, (S)-3-(3,5-difluorophenyl)-N-((2S,6S,9S,11aS,17S,18S,20aS)-9-((S)-1-hydroxyethyl)-2,6,10,18-tetramethyl-5,8,11,16,20-pentaoxohexadecahydro-1H,5H,16H-dipyrrolo[2,1-c:2′,1′-l][1]oxa[4,7,10,13]tetraazacyclohexadecin-17-yl)-2-(3-(4-(trifluoromethoxy)phenyl)ureido)propanamide] ({NH(4-OCF3-phenyl)-CO}-[Phe(3,5-F2)][aThr]P[NMeaThr]A[Pro(4S-Me)]; ester 2-C) | 430 ± 10 nM
